Assay results: ChEMBL document CHEMBL3774316, “Design, synthesis and anti-HIV-1 evaluation of hydrazide-based peptidomimetics as selective gelatinase inhibitors” (Bioorg Med Chem, 2016)
pEC50, pIC50: −log10 of the molar value.

Biological target: 72 kDa type IV collagenase (Homo sapiens, UniProt P08253)
Assay: Inhibition of gelatinase A (unknown origin) after 30 mins using succinylated gelatin as substrate
Settings: not given

72 kDa type IV collagenase, sequence (P08253 whole entry): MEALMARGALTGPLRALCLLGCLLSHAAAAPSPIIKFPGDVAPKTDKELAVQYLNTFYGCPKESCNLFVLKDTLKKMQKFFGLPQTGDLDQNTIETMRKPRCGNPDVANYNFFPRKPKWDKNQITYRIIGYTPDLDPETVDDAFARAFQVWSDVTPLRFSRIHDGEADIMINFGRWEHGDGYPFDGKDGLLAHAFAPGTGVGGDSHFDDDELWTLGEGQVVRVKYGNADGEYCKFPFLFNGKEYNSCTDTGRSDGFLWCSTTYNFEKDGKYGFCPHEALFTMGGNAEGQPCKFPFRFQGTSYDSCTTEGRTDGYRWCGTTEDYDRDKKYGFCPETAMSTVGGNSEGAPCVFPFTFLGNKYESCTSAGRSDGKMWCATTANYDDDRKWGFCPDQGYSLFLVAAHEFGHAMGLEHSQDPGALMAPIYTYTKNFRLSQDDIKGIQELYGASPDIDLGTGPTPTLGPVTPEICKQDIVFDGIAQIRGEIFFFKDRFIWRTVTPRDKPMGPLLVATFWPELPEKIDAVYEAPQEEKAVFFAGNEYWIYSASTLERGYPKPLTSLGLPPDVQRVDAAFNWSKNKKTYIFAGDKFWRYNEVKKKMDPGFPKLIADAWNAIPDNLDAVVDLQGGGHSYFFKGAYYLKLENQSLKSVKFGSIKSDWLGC

pIC50 | SMILES
5.03 | C/C(=N\NC(=O)Cn1c(=O)c(C)nc2ccccc21)c1ccccc1
4.41 | Cc1ccc(/C=N/NC(=O)Cn2c(=O)c(C)nc3ccccc32)cc1
4.04 | C/C(=N\NC(=O)Cn1c(=O)c(C)nc2ccccc21)c1ccc([N+](=O)[O-])cc1
6.39 | Cc1ccc(S(=O)(=O)N2CC3(C[C@H]2C(=O)N/N=C/c2ccccc2Br)SCCS3)cc1
5.26 | Cc1ccc(S(=O)(=O)N2CC3(C[C@H]2C(=O)N/N=C/c2ccc(N(C)C)cc2)SCCS3)cc1
3.25 | C/C(=N\NC(=O)Cn1c(=O)c(C)nc2ccccc21)c1cccc(Cl)c1
5.14 | COc1cccc(/C=N/NC(=O)Cn2c(=O)c(C)nc3ccccc32)c1O
3.65 | COc1cc(/C=N/NC(=O)Cn2c(=O)c(C)nc3ccccc32)cc(OC)c1OC

Biological target: T1, Aminopeptidase N (Sus scrofa, UniProt P15145)
T1 sequence (P15145 whole entry): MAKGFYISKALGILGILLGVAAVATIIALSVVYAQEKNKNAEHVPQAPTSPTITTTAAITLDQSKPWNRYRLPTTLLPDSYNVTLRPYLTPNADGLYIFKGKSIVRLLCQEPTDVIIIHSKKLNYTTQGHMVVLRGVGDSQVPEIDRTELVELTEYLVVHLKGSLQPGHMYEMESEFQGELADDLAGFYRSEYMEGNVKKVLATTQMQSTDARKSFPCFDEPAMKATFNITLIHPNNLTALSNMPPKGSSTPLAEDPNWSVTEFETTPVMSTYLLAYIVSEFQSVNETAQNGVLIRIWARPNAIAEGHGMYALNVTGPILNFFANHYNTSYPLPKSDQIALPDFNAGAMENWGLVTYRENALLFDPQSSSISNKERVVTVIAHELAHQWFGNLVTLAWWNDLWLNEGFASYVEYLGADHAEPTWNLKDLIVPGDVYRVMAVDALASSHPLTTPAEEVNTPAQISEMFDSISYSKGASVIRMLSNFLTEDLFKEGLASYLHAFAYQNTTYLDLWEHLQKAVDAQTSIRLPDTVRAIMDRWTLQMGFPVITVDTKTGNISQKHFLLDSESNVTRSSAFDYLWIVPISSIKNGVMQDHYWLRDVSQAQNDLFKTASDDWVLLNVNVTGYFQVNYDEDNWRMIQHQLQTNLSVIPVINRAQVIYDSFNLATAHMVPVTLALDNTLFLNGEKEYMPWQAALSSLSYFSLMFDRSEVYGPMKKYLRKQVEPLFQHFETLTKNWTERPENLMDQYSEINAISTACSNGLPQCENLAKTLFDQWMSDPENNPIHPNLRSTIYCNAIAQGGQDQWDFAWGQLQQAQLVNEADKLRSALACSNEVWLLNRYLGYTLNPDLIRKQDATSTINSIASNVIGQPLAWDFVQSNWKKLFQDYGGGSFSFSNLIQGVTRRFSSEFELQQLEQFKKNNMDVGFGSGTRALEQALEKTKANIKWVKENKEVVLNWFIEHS
Assay: Inhibition of porcine microsomal aminopeptidase N preincubated for 30 mins using L-Leu-p-nitroanilide as substrate by UV-VIS spectrophotometer
Settings: not given

pIC50 | SMILES
4.00 | C/C(=N\NC(=O)Cn1c(=O)c(C)nc2ccccc21)c1ccccc1
3.51 | Cc1ccc(/C=N/NC(=O)Cn2c(=O)c(C)nc3ccccc32)cc1
3.41 | C/C(=N\NC(=O)Cn1c(=O)c(C)nc2ccccc21)c1ccc([N+](=O)[O-])cc1
< 3.00 | Cc1ccc(S(=O)(=O)N2CC3(C[C@H]2C(=O)N/N=C/c2ccccc2Br)SCCS3)cc1
< 3.00 | Cc1ccc(S(=O)(=O)N2CC3(C[C@H]2C(=O)N/N=C/c2ccc(N(C)C)cc2)SCCS3)cc1
< 3.00 | C/C(=N\NC(=O)Cn1c(=O)c(C)nc2ccccc21)c1cccc(Cl)c1
4.09 | COc1cccc(/C=N/NC(=O)Cn2c(=O)c(C)nc3ccccc32)c1O
4.24 | COc1cc(/C=N/NC(=O)Cn2c(=O)c(C)nc3ccccc32)cc(OC)c1OC

Tested on: Human immunodeficiency virus 1
Assay: Antiviral activity against HIV1 3B infected in human C8166 cells assessed as cytopathic effect by counting the number of syncytia by microscopy
Assay type: functional, organism-based
Settings: Human immunodeficiency virus 1, 3B

pEC50 | SMILES
4.26 | C/C(=N\NC(=O)Cn1c(=O)c(C)nc2ccccc21)c1ccccc1
4.29 | Cc1ccc(/C=N/NC(=O)Cn2c(=O)c(C)nc3ccccc32)cc1
3.84 | C/C(=N\NC(=O)Cn1c(=O)c(C)nc2ccccc21)c1ccc([N+](=O)[O-])cc1
4.55 | Cc1ccc(S(=O)(=O)N2CC3(C[C@H]2C(=O)N/N=C/c2ccccc2Br)SCCS3)cc1
4.42 | Cc1ccc(S(=O)(=O)N2CC3(C[C@H]2C(=O)N/N=C/c2ccc(N(C)C)cc2)SCCS3)cc1
< 3.26 | C/C(=N\NC(=O)Cn1c(=O)c(C)nc2ccccc21)c1cccc(Cl)c1
5.55 | COc1cccc(/C=N/NC(=O)Cn2c(=O)c(C)nc3ccccc32)c1O
4.08 | COc1cc(/C=N/NC(=O)Cn2c(=O)c(C)nc3ccccc32)cc(OC)c1OC

Tested on: Human immunodeficiency virus 1
Assay: Antiviral activity against HIV1 A17 infected in human C8166 cells assessed as reduction in p24 antigen level incubated for 4 hrs followed by cell plating for 72 hrs by ELISA method
Assay type: functional, organism-based
Settings: Human immunodeficiency virus 1, A17, C8166

pEC50 | SMILES
4.74 | Cc1ccc(S(=O)(=O)N2CC3(C[C@H]2C(=O)N/N=C/c2ccccc2Br)SCCS3)cc1
4.13 | Cc1ccc(S(=O)(=O)N2CC3(C[C@H]2C(=O)N/N=C/c2ccc(N(C)C)cc2)SCCS3)cc1
5.61 | COc1cccc(/C=N/NC(=O)Cn2c(=O)c(C)nc3ccccc32)c1O

Tested on: not listed separately
Assay: Therapeutic index, ratio of CC50 for human C8166 cells to EC50 for HIV1 3B infected in human C8166 cells
Assay type: cell-based
Settings: read-out: Ratio CC50/EC50

SMILES | selectivity ratio
C/C(=N\NC(=O)Cn1c(=O)c(C)nc2ccccc21)c1ccccc1 | 8.9
Cc1ccc(/C=N/NC(=O)Cn2c(=O)c(C)nc3ccccc32)cc1 | 5.1
C/C(=N\NC(=O)Cn1c(=O)c(C)nc2ccccc21)c1ccc([N+](=O)[O-])cc1 | > 3.6
Cc1ccc(S(=O)(=O)N2CC3(C[C@H]2C(=O)N/N=C/c2ccccc2Br)SCCS3)cc1 | 6.3
Cc1ccc(S(=O)(=O)N2CC3(C[C@H]2C(=O)N/N=C/c2ccc(N(C)C)cc2)SCCS3)cc1 | > 10.5
COc1cccc(/C=N/NC(=O)Cn2c(=O)c(C)nc3ccccc32)c1O | 41.3
COc1cc(/C=N/NC(=O)Cn2c(=O)c(C)nc3ccccc32)cc(OC)c1OC | > 5.9

Tested on: C8166
Assay: Cytotoxicity against human C8166 cells after 72 hrs by MTT assay
Assay type: functional
Settings: C8166, 72 h

SMILES | CC50
C/C(=N\NC(=O)Cn1c(=O)c(C)nc2ccccc21)c1ccccc1 | 491 µM
Cc1ccc(/C=N/NC(=O)Cn2c(=O)c(C)nc3ccccc32)cc1 | 262 µM
C/C(=N\NC(=O)Cn1c(=O)c(C)nc2ccccc21)c1ccc([N+](=O)[O-])cc1 | > 528 µM
Cc1ccc(S(=O)(=O)N2CC3(C[C@H]2C(=O)N/N=C/c2ccccc2Br)SCCS3)cc1 | 177 µM
Cc1ccc(S(=O)(=O)N2CC3(C[C@H]2C(=O)N/N=C/c2ccc(N(C)C)cc2)SCCS3)cc1 | > 397 µM
C/C(=N\NC(=O)Cn1c(=O)c(C)nc2ccccc21)c1cccc(Cl)c1 | > 543 µM
COc1cccc(/C=N/NC(=O)Cn2c(=O)c(C)nc3ccccc32)c1O | 115 µM
COc1cc(/C=N/NC(=O)Cn2c(=O)c(C)nc3ccccc32)cc(OC)c1OC | > 488 µM

Tested on: Human immunodeficiency virus 1
Assay: Antiviral activity against HIV1 3B infected in human C8166 cells assessed as reduction in p24 antigen level incubated for 2 hrs followed by cell plating for 72 hrs by ELISA method
Assay type: functional, organism-based
Settings: Human immunodeficiency virus 1, 3B

pEC50 | SMILES
4.48 | Cc1ccc(S(=O)(=O)N2CC3(C[C@H]2C(=O)N/N=C/c2ccccc2Br)SCCS3)cc1
4.12 | Cc1ccc(S(=O)(=O)N2CC3(C[C@H]2C(=O)N/N=C/c2ccc(N(C)C)cc2)SCCS3)cc1
5.22 | COc1cccc(/C=N/NC(=O)Cn2c(=O)c(C)nc3ccccc32)c1O

Tested on: Human immunodeficiency virus 1
Assay: Antiviral activity against HIV1 74V infected in human C8166 cells assessed as reduction in p24 antigen level incubated for 4 hrs followed by cell plating for 72 hrs by ELISA method
Assay type: functional, organism-based
Settings: Human immunodeficiency virus 1, 74V

pEC50 | SMILES
4.51 | Cc1ccc(S(=O)(=O)N2CC3(C[C@H]2C(=O)N/N=C/c2ccccc2Br)SCCS3)cc1
4.25 | Cc1ccc(S(=O)(=O)N2CC3(C[C@H]2C(=O)N/N=C/c2ccc(N(C)C)cc2)SCCS3)cc1
5.46 | COc1cccc(/C=N/NC(=O)Cn2c(=O)c(C)nc3ccccc32)c1O
